Data published in publication PMC10813862, “Gαi2 Protein Inhibition Blocks Chemotherapy- and Anti-Androgen-Induced Prostate Cancer Cell Migration” (Cancers, 2024).
Where “and” joins values, the source holds several entries; their conditions need not be identical. Identical values can stand only once.

Experiments:
[1] = test system: PC3 cells; assay: transwell migration assay, PC3 cells; assay type: cell-based, human; details: for effect on PC3 cell migration (migration index): compound alone, concentration range 0.1 to 100 μM, 5 h, compared with 14; for PC3 cell migration in combination with SAHA or docetaxel: Gαi2 inhibitor at 20 μM, in combination with either SAHA or docetaxel; for effect of chemotherapeutic drugs on PC3 cell migration: drug alone, AR-negative cells
Experimental: (§1) In vitro transwell migration assays were conducted as described previously. Briefly, the outside of the transwell inserts (BD Biosciences, San Jose, CA, USA) were coated with 50 µL of rat tail collagen (50 μg/mL; BD Biosciences, San Jose, CA, USA) overnight at 4 °C. The next day, 50 μL of the aforementioned rat tail collagen was added for 1 h at room temperature into the transwell inserts to coat the inside of the membranes. DU145, PC3 and LNCaP cells were trypsinized and suspended at the appropriate density (3 × 10^5 cells/insert for DU145 and PC3, and 5 × 10^5 cells/insert for LNCaP) in MEM or RPMI containing 0.2% BSA (Sigma-Aldrich, St. Louis, MO, USA). Chemoattractant solution, used as the positive control, was made by diluting the epidermal growth factor (EGF) (10 ng/mL) into MEM (PC3 and DU145) or RPMI (LNCaP) supplemented with 0.2% BSA. Media containing 0.2% BSA served as a control. Control and EGF solutions (400 μL) were added into the wells of a 24-well plate. Aliquots of 100 μL of cell suspensions, treated with or without the different compounds at several concentrations, were loaded into the transwell inserts, and the plates were incubated at 37 °C for 5 h (DU145 and PC3) or 24 h (LNCaP). The cells inside the transwell inserts were removed by cotton swabs, and the cleaned inserts were fixed with 350 μL of 4% paraformaldehyde (pH 7.5) for 20 min at room temperature. Cells that had migrated to the outside of the transwell insert membrane were stained with 3 ng/mL of DAPI solution (Thermo Fisher Scientific, Eugene, OR, USA), and images of five non-overlapping fields were captured using an Axiovert 200M, Carl Zeiss (Thornwood, NY, USA) microscope. The number of stained nuclei were determined with automatic counting using image analysis software (ZEN 2012 (blue edition, Version 1.1.1.0); Carl Zeiss Microscopy GmbH, Oberkochen, Germany). The results were expressed as a migration index defined as the average number of cells per field for test substance/the average number of cells per field for the medium control.

[2] = test system: LNCaP cells; assay: MTS viability, LNCaP cells; assay type: cell-based; details: Homo sapiens, 72 h, n=3
Experimental: (§2) Figure S1A. Effects of compounds 3- 7, 10, 12, 13 and 15 on the viability of LNCaP,
(§3) MDA-MD-231, MCF-7 and Vero cells. The cells are incubated with the drugs for 72 h
(§4) and viability evaluated with MTS. NI = IC50 greater than 100 μM. n=3
(§5) Compound LNCaP (µM) MDA-MB-231 (µM) MCF-7 (µM) Vero (µM)

[3] = test system: MDA-MB-231 cells; assay: MTS viability, MDA-MB-231 cells; assay type: cell-based; details: Homo sapiens, 72 h, n=3
Experimental: as §2, §3, §4, §5

[4] = test system: MCF-7 cells; assay: MTS viability, MCF-7 cells; assay type: cell-based; details: Homo sapiens, MCF7, 72 h, n=3
Experimental: as §2, §3, §4, §5

[5] = test system: Vero cells; assay: MTS viability, Vero cells; assay type: cell-based; details: Chlorocebus sabaeus, 72 h, n=3
Experimental: as §2, §3, §4, §5

[6] = test system: LNCaP cells; assay: transwell migration assay, LNCaP cells; assay type: cell-based, human; details: for effect on LNCaP cell migration (migration index): drug alone at several concentrations; for effect on LNCaP cell migration (migration index) / concentration of maximum induction of LNCaP cell migration: 24 h; for concentration of maximum induction of LNCaP cell migration: drug alone
Experimental: as §1

[7] = test system: DU145 cells; assay: transwell migration assay, DU145 cells; assay type: cell-based, human; details: drug alone, AR-negative cells
Experimental: as §1

[8] = test system: Gαi2 protein; assay: Western blot of Gαi2 protein levels in LNCaP cells; assay type: cell-based, human; details: 24 h; enzalutamide 2.5 μM, bicalutamide 2.5 μM, SBI-I-19 2 μM, SAHA 4 μM
Experimental: (§6) Docetaxel, a taxoid anti-cancer agent, was purchased from Millipore-Sigma and dissolved in DMSO at a starting concentration of 100 μM. SAHA, a commercially available FDA-approved HDACi, was purchased from Sigma-Aldrich (St. Louis, MO, USA) and dissolved in DMSO at a starting concentration of 100 mM. SBI-I-19, an HDAC inhibitor conjugated with anti-androgen, was dissolved in DMSO at a starting concentration of 50 mM. The anti-androgen drugs enzalutamide and bicalutamide were purchased from Selleckchem (Houston, TX, USA) and Sigma-Aldrich, respectively. Anti-androgens were prepared at a stock concentration of 100 mM (enzalutamide) and 10 mM (bicalutamide) in DMSO. The Gαi2 inhibitor (compound 14) was diluted in DMSO at a stock concentration of 100 mM, as previously described. All drugs used in the study were then diluted in the culture media to the final concentrations used in various assays. To determine the effects of specific treatments on the levels of Gαi2 protein, LNCaP and PC3 cells (10^6 cells) were cultured overnight in 10 cm^2 culture dishes. The cells were then treated with anti-androgens and other agents for 24 h and the total cell lysates were collected for Western blot analyses.
Western blot analyses were performed as described previously. Briefly, cell lysates were mixed with Laemmeli’s buffer (62.5 mM Tris, pH 6.8, 2% sodium dodecyl sulfate, 5% β–mercaptoethanol and 10% glycerol). Samples (30–35 µg proteins) were separated on 10% SDS-PAGE gels and transferred to polyvinylidene difluoride (PVDF) membranes (Millipore Corp., Bedford, MA, USA). After blocking the membranes with 5% fat-free milk in TBST (50 mM Tris, pH 7.5, containing 0.15 M NaCl, and 0.05% Tween 20) for 1 h at room temperature, the membranes were incubated with specific primary antibodies at appropriate dilutions (1:5000 for Gαi2; 1:3000 for α-tubulin) overnight at 4 °C. After washing, the blots were incubated with appropriate secondary antibodies. The blots were then developed in Millipore Luminata Forte (EMD Millipore) for 5 min and visualized using a BioRad ChemiDoc Imaging System, according to the manufacturer’s instructions. The density of specific protein bands was determined using ImageJ 1.53 K image analyses software.

[9] = stability in human plasma; assay type: in vitro ADME; details: read-out: Plasma t1/2, Human
Text: Table 1 Stability of compounds 6, 7 and 10 in human and mouse plasma and liver microsomes. | column: Plasma (t1/2 = Min) / Human

[10] = stability in mouse plasma; assay type: in vitro ADME; details: read-out: Plasma t1/2, Mouse
Text: Table 1 Stability of compounds 6, 7 and 10 in human and mouse plasma and liver microsomes. | column: Plasma (t1/2 = Min) / Mouse

[11] = stability in human liver microsomes; assay type: in vitro ADME; details: read-out: Microsome t1/2, Human
Text: Table 1 Stability of compounds 6, 7 and 10 in human and mouse plasma and liver microsomes. | column: Microsome (t1/2 = Min) / Human

[12] = stability in mouse liver microsomes; assay type: in vitro ADME; details: read-out: Microsome t1/2, Mouse
Text: Table 1 Stability of compounds 6, 7 and 10 in human and mouse plasma and liver microsomes. | column: Microsome (t1/2 = Min) / Mouse

[13] = test system: PC3 cells; parameters: method as in PMID 32575572; details: cited from earlier work
[14] = test system: DU145 cells; parameters: method as in PMID 32575572; details: cited from earlier work
[15] = test system: Gαi2 protein; assay: Western blot of Gαi2 protein levels in PC3 cells; assay type: cell-based, human; details: 24 h; docetaxel 1 nM
Experimental: as §6
Western blot analyses were performed as described previously. […] The density of specific protein bands was determined using ImageJ 1.53 K image analyses software.

| Compound | effect on PC3 cell migration (migration index) [1] | IC50 [2] | IC50 [3] | IC50 [4] | IC50 [5] | further results |
| --- | --- | --- | --- | --- | --- | --- |
| CC(Oc1ccc(S(C)(=O)=O)cc1)c1cc2ccccc2n1C (stereo not shown) [Compound 12] | less effective | > 100 µM | > 100 µM | > 100 µM | > 100 µM | – |
| CNC(=O)c1ccc(N2C(=S)N(c3ccc(C#N)c(C(F)(F)F)c3)C(=O)C2(C)C)cc1F [enzalutamide] | – | – | – | – | – | effect on LNCaP cell migration (migration index) [6]: induced a dose-dependent increase in cell migration; concentration of maximum induction of LNCaP cell migration [6]: 2.5 µM; effect of chemotherapeutic drugs on DU145 cell migration [7]: increased cell migration; levels of Gαi2 protein in LNCaP cells [8]: increased levels of Gαi2 protein |
| CSc1ccc(NC(C)c2cc3ccccc3n2C)cc1 (stereo not shown) [Compound 7] | more effective relative to 14 | 43.4 ± 3.9 µM | > 100 µM | > 100 µM | > 100 µM | PC3 cell migration in combination with SAHA or docetaxel [1]: decreased significantly PC3 cell migration; half-life [9]: > 120 min; half-life [10]: > 120 min; half-life [11]: 45 min; half-life [12]: < 10 min |
| O=C(CCCCCCC(=O)Nc1ccccc1)NO [SAHA] | – | – | – | – | – | effect of chemotherapeutic drugs on PC3 cell migration [1]: induced an increase in cell migration; effect on LNCaP cell migration (migration index) [6]: induced a significant dose-dependent increase in cell migration; concentration of maximum induction of LNCaP cell migration [6]: 0.5 µM and 1 µM; effect of chemotherapeutic drugs on DU145 cell migration [7]: increased cell migration; levels of Gαi2 protein in LNCaP cells [8]: induced a reduction in the levels of Gαi2 protein |
| CSc1ccc(/N=C(\C)c2cc3ccccc3n2C)cc1 [Compound 4] | concentration dependent reduction of PC3 cell migration, but less efficiently relative to 14 | > 100 µM | > 100 µM | > 100 µM | > 100 µM | – |
| Cn1c(CNc2ccc(O)cc2)cc2ccccc21 [Compound 5] | comparable potency | > 100 µM | > 100 µM | > 100 µM | > 100 µM | – |
| CC(Nc1ccc(O)cc1)c1cc2ccccc2n1C (stereo not shown) [Compound 6] | more effective relative to 14 | 86.8 ± 10.8 µM | 27.3 ± 4.8 µM | 75.7 ± 5.3 µM | 32.4 ± 1.6 µM | PC3 cell migration in combination with SAHA or docetaxel [1]: decreased significantly PC3 cell migration; half-life [9]: > 120 min; half-life [10]: 27 min; half-life [11]: 118 min; half-life [12]: 47 min |
| CC(O)(CS(=O)(=O)c1ccc(F)cc1)C(=O)Nc1ccc(C#N)c(C(F)(F)F)c1 (stereo not shown) [bicalutamide] | – | – | – | – | – | effect on LNCaP cell migration (migration index) [6]: induced a dose-dependent increase in cell migration; concentration of maximum induction of LNCaP cell migration [6]: 2.5 µM; levels of Gαi2 protein in LNCaP cells [8]: increased levels of Gαi2 protein |
| CC1(C)C(=O)N(c2ccc(C#N)c(C(F)(F)F)c2)C(=O)N1Cc1ccc(-c2cn(CCCCC(=O)NO)nn2)cc1 [SBI-I-19] | – | – | – | – | – | effect on LNCaP cell migration (migration index) [6]: induced a significant dose-dependent increase in cell migration; concentration of maximum induction of LNCaP cell migration [6]: 1 µM and 2 µM; effect of chemotherapeutic drugs on DU145 cell migration [7]: increased cell migration; levels of Gαi2 protein in LNCaP cells [8]: increased levels of Gαi2 protein |
| C/C(=N\c1ccc(O)cc1)c1cc2ccccc2n1C [Compound 14] | – | – | – | – | – | effect on docetaxel-induced PC3 cell migration ([1]; compound 14 at 25 μM, simultaneous treatment with docetaxel): blocked the stimulatory effects of docetaxel; effect on HDACi- and anti-androgen-induced LNCaP cell migration ([6]; compound 14 at 25 μM, simultaneous treatment with enzalutamide, bicalutamide, SAHA or SBI-I-19): blocked; EGF-induced migration of PC3 cells [13]: attenuated the EGF-induced migration; EGF-induced migration of DU145 cells [14]: attenuated the EGF-induced migration |
| CC(=O)O[C@@]12CO[C@@H]1C[C@H](O)[C@@]1(C)C(=O)[C@H](O)C3=C(C)[C@@H](OC(=O)[C@H](O)[C@@H](NC(=O)OC(C)(C)C)c4ccccc4)C[C@@](O)([C@@H](OC(=O)c4ccccc4)[C@H]21)C3(C)C [docetaxel, reference compound] | – | – | – | – | – | effect of chemotherapeutic drugs on PC3 cell migration [1]: induced an increase in cell migration; levels of Gαi2 protein in PC3 cells [15]: had no effect on the levels of Gαi2 protein |
| CSc1ccc(OC(C)c2cc3ccccc3n2C)cc1 (stereo not shown) [Compound 10] | less potent compared to 7 | > 100 µM | > 100 µM | > 100 µM | > 100 µM | PC3 cell migration in combination with SAHA or docetaxel [1]: decreased significantly PC3 cell migration; half-life [9]: > 120 min; half-life [10]: > 120 min; half-life [11]: 35 min; half-life [12]: < 10 min |
| CC(Oc1ccc([S+](C)[O-])cc1)c1cc2ccccc2n1C (stereo not shown) [Compound 13] | less effective | > 100 µM | > 100 µM | > 100 µM | > 100 µM | – |
| Cn1c(/C=N/c2ccc(O)cc2)cc2ccccc21 [Compound 3] | concentration dependent reduction of PC3 cell migration, but less efficiently relative to 14 | > 100 µM | > 100 µM | > 100 µM | > 100 µM | – |
| CC(Oc1ccc(O)cc1)c1cc2ccccc2n1C (stereo not shown) [Compound 15] | did not inhibit the migration of PC3 cells at the maximum concentration tested | > 100 µM | > 100 µM | > 100 µM | > 100 µM | – |
